Experimental data reported in patent US11419335B2, “N-arylated analogues and uses thereof” (University of Florida Research Foundation, Incorporated, priority 2016, dated 2022).
Where two headings read alike, the source gives them in different places. Marks after values point to notes of the source that are not given here.

Legend:
[1] = test system: SA-129 (clinical isolate); experiment: MIC broth microdilution, SA-129; format: cell-based, Staphylococcus aureus
Description: (§1) The minimum inhibitory concentration (MIC) for each tested compound was determined by the broth microdilution method as recommended by the Clinical and Laboratory Standards Institute (CLSI). In a 96-well plate, eleven two-fold serial dilutions of each compound were made in a final volume of 100 μL Luria Broth. Each well was inoculated with ˜10^5 bacterial cells at the initial time of incubation, prepared from a fresh log phase culture (OD600 of 0.5 to 1.0 depending on bacterial strain). […] (MIC values were supported by spectrophotometric readings at OD600). DMSO served as our vehicle and negative control in each microdilution MIC assay. DMSO was serially diluted with a top concentration of 1% v/v.
(§2) Each well was inoculated with ˜10^5 bacterial cells at the initial time of incubation, prepared from a fresh log phase culture (OD600 of 0.5 to 1.0 depending on bacterial strain). […] The concentration range tested for each compound during this study was 0.10 to 100 μM. DMSO served as our vehicle and negative control in each microdilution MIC assay. DMSO was serially diluted with a top concentration of 1% v/v. All MIC values were obtained from a minimum of three independent experiments.

[2] = test system: Acinetobacter baumannii (ATCC 1794); experiment: MIC broth microdilution, A. baumannii 1794; format: cell-based; conditions: for MIC A. baumannii 1794: Table 1A, in µM; for MIC A. bau. 1794: Table 4
Description: (§3) The minimum inhibitory concentration (MIC) for each tested compound was determined by the broth microdilution method as recommended by the Clinical and Laboratory Standards Institute (CLSI). In a 96-well plate, eleven two-fold serial dilutions of each compound were made in a final volume of 100 μL Luria Broth. Each well was inoculated with ˜10^5 bacterial cells at the initial time of incubation, prepared from a fresh log phase culture (OD600 of 0.5 to 1.0 depending on bacterial strain). The MIC was defined as the lowest concentration of compound that prevented bacterial growth after incubating 16 to 18 hours at 37° C. (MIC values were supported by spectrophotometric readings at OD600). DMSO served as our vehicle and negative control in each microdilution MIC assay. DMSO was serially diluted with a top concentration of 1% v/v.
as §3, with “for each compound was” for “for each tested compound was”, “Standards Institute (CLSI).^6 In a” for “Standards Institute (CLSI). In a”, “concentration of test compound that” for “concentration of compound that”, “37° C. The concentration range tested for each compound during this study was 0.10 to 100 μM. DMSO served” for “37° C. (MIC values were supported by spectrophotometric readings at OD600). DMSO served”, “1% v/v. All MIC values were obtained from a minimum of three independent experiments.” for “1% v/v.”

[3] = test system: vancomycin-resistant Enterococcus faecium (VRE strain ATCC 700221); experiment: MIC broth microdilution, VRE 700221; format: cell-based; conditions: for MIC E. faecium VRE 700221: Table 1A; for MIC VRE 700221: Table 4
Description: as §3
as §3, with “for each compound was” for “for each tested compound was”, “Standards Institute (CLSI).^6 In a” for “Standards Institute (CLSI). In a”, “concentration of test compound that” for “concentration of compound that”, “37° C. The concentration range tested for each compound during this study was 0.10 to 100 μM. DMSO served” for “37° C. (MIC values were supported by spectrophotometric readings at OD600). DMSO served”, “1% v/v. All MIC values were obtained from a minimum of three independent experiments.” for “1% v/v.”

[4] = test system: SA-138 (clinical isolate); experiment: MIC broth microdilution, SA-138; format: cell-based, Staphylococcus aureus
Description: as §1, §2

[5] = test system: methicillin-resistant Staphylococcus aureus MRSA-2 (clinical isolate); experiment: MIC broth microdilution, MRSA-2; format: cell-based; conditions: for MIC: read-out: MIC MRSA-2
Description: as §3
as §3, with “for each compound was” for “for each tested compound was”, “Standards Institute (CLSI).^6 In a” for “Standards Institute (CLSI). In a”, “concentration of test compound that” for “concentration of compound that”, “37° C. The concentration range tested for each compound during this study was 0.10 to 100 μM. DMSO served” for “37° C. (MIC values were supported by spectrophotometric readings at OD600). DMSO served”, “1% v/v. All MIC values were obtained from a minimum of three independent experiments.” for “1% v/v.”

[6] = test system: methicillin-sensitive Staphylococcus aureus ATCC 29213; experiment: MIC broth microdilution, S. aureus 29213; format: cell-based
Description: as §1, §2

[7] = test system: Pseudomonas aeruginosa (PAO1); experiment: MIC broth microdilution, PAO1; format: cell-based
Description: as §3
as §3, with “for each compound was” for “for each tested compound was”, “Standards Institute (CLSI).^6 In a” for “Standards Institute (CLSI). In a”, “concentration of test compound that” for “concentration of compound that”, “37° C. The concentration range tested for each compound during this study was 0.10 to 100 μM. DMSO served” for “37° C. (MIC values were supported by spectrophotometric readings at OD600). DMSO served”, “1% v/v. All MIC values were obtained from a minimum of three independent experiments.” for “1% v/v.”

[8] = test system: SA-156 (clinical isolate); experiment: MIC broth microdilution, SA-156; format: cell-based, Staphylococcus aureus
Description: as §1, §2

MRSA BAA-44 = experiment: MIC broth microdilution, MRSA BAA-44; format: cell-based, Staphylococcus aureus
Description: as §1, §2

[9] = test system: MRSA-1 (clinical isolate); experiment: MIC broth microdilution, MRSA-1; format: cell-based, Staphylococcus aureus
Description: as §1, §2

MRSA BAA-1707 = experiment: MIC broth microdilution, MRSA BAA-1707; format: cell-based, Staphylococcus aureus; conditions: for MIC: read-out: MIC MRSA BAA-1707; for MIC MRSA 1707: Table 4
Description: as §1, §2

[10] = test system: methicillin-resistant Staphylococcus epidermidis (MRSE strain ATCC 35984); experiment: MIC broth microdilution, MRSE 35984; format: cell-based; conditions: for MIC S. epidermidis MRSE 35984: Table 1A; for MIC MRSE 35984: Table 4
Description: as §3
as §3, with “for each compound was” for “for each tested compound was”, “Standards Institute (CLSI).^6 In a” for “Standards Institute (CLSI). In a”, “concentration of test compound that” for “concentration of compound that”, “37° C. The concentration range tested for each compound during this study was 0.10 to 100 μM. DMSO served” for “37° C. (MIC values were supported by spectrophotometric readings at OD600). DMSO served”, “1% v/v. All MIC values were obtained from a minimum of three independent experiments.” for “1% v/v.”

[11] = test system: SA-147 (clinical isolate); experiment: MIC broth microdilution, SA-147; format: cell-based, Staphylococcus aureus
Description: as §1, §2

[12] = test system: human red blood cells (hRBC); experiment: Hemolysis of red blood cells; format: cell-based
Description: The washing was repeated three times with the buffer. In a 96-well plate, test compounds were added to the buffer from DMSO stocks. […] The plate was then incubated for 1 hour at 37° C. After incubation, the plate was centrifuged for 5 minutes at 3,500 rpm. Then 80 μL of the supernatant was transferred to another 96-well plate and the optical density (OD) was read at 405 nm. DMSO served as our negative control (0% hemolysis) while Triton X served as our positive control (100% hemolysis). […] All reported data correspond to three independent experiments. Ten-point dose-response curves were generated in 96-well plates to determine 50% hemolysis (HC50 values) of red blood cells.
The washing was repeated three times with the buffer. In 96-well plate, the test compounds were added to the buffer. Then 50 μL of 2% of hRBCs in the buffer were added to the test plate to make the final concentrations ranging from 0.2 to 200 μM of each test compound. The plate was then incubated for 1 hour at 37° C. After incubation, the plate was centrifuged for 5 minutes at 3500 rpm and then 80 μL of the supernatant was transferred to another 96-well plate and the Optical Density (OD) was read at 405 nm. DMSO served as our negative control (0% haemolysis) and Triton X served as our positive control (100% haemolysis). The HC50 (concentration of test compound required to lyse red blood cells by 50%) was calculated by plotting the dose-response curve (not shown) with Graphpad Prism 6.0. All data were obtained from three independent haemolysis experiments.

MRSA-2 biofilms = experiment: Calgary Biofilm Device assay (MBC/MBEC), MRSA-2; format: cell-based, Staphylococcus aureus; conditions: Table 2A; CBD assay
Description: The lid of the Calgary device was then removed, washed and transferred to another 96-well plate containing 2-fold serial dilutions of the test compounds (the “challenge plate”). The total volume of media with compound in each well in the challenge plate is 150 μL. […] The lid was then removed from the challenge plate and MBC/MBEC values were determined using different final assays. […] The MBC values were determined as the concentration giving a lack of visible bacterial growth (i.e., turbidity). […] In select experiments, pegs from the Calgary device were removed from lead biofilm eradicators after final incubation, sonicated for 30 minutes in PBS and plated out to determine biofilm cell killing of lead biofilm-eradicating agents (i.e., colony forming unit per milliliter, CFU/mL).
Using a Calgary Biofilm Device, bacterial biofilms are established on pegs suspended to the bottom of a 96-well plate lid. Following biofilm establishment on lid pegs, lids are then transferred to new 96-well plates containing serial dilutions of test compound and allowed to incubate. After compound treatment, 96-well plate lids with pegs are once again transferred to 96-well plates containing fresh media. During this final phase of the assay, viable biofilms will grow and disperse planktonic cells into the media where they will grow and give a turbid well result. Conversely, wells that have no growth are a result of pegs that had eradicated bacterial biofilms. The lowest concentration at which no turbidity is observed is the minimum biofilm eradication concentration (MBEC). Using the Calgary Biofilm Device, both minimum biofilm eradication concentrations and minimum bactericidal concentrations (MBC) for planktonic bacterial can be determined using one assay from a single bacterial culture (FIG. 3A).

Row | Structure (SMILES) | MIC ([1]; Table 1B) | MIC ([1]; Table 3) | MIC A. baumannii 1794 [2] | MIC A. bau. 1794 [2] | MIC E. faecium VRE 700221 [3] | MIC VRE 700221 [3] | MIC ([4]; Table 1B) | MIC ([4]; Table 3) | MIC MRSA-2 ([5]; Table 1A) | MIC MRSA-2 ([5]; Table 4) | MIC ([6]; Table 1B) | MIC ([6]; Table 3) | MIC PAO1 ([7]; Table 1A) | MIC PAO1 ([7]; Table 4) | MIC (MRSA BAA-1707; Table 1B) | MIC (MRSA BAA-1707; Table 3) | MIC MRSA 1707 (MRSA BAA-1707) | MIC S. epidermidis MRSE 35984 [10] | MIC MRSE 35984 [10] | other results
1 | CCCCCCCCCCCCCCCCn1cc[n+](Cc2cccc(OC)c2)c1C.[Br-] [Compound 17] | 3.13 µM | 3.13 µM | >100* | >100 µM | 1.56 µM | 1.56 µM | 3.13 µM | 3.13 µM | 1.56 µM | 2.35a micromolar | 3.13 µM | 3.13 µM | > 100 µM | >100 µM | 1.56 µM | 1.56 µM | 1.56 µM | 2.35^a | 2.35a micromolar | MIC MRSA-2 ([5]; Table 1B): 2.35^a μM; MIC MRSA-2 ([5]; Table 3): 2.35^a μM; MIC SA-156 ([8]; Table 1B): 2.35^a μM; MIC SA-156 ([8]; Table 3): 2.35^a μM; MIC MRSA BAA-44 (MRSA BAA-44; Table 1B): 2.35^a μM; MIC MRSA BAA-44 (MRSA BAA-44; Table 3): 2.35^a μM; MIC MRSA-1 ([9]; Table 1B): 4.69^a μM; MIC MRSA-1 ([9]; Table 3): 4.69^a μM; MIC SA-147 ([11]; Table 1B): 2.35^a μM; MIC SA-147 ([11]; Table 3): 2.35^a μM
2 | CCCCCCCCCCCCCCCCn1c(C)[n+](Cc2ccccc2)c2ccccc21.[Br-] [Compound 25] | 3.13 µM | 3.13 µM | >100 | >100 µM | 1.56 µM | 1.56 µM | 6.25 µM | 6.25 µM | 3.13 µM | 3.13 µM | 12.5 µM | 12.5 µM | > 100 µM | >100 µM | 12.5 µM | 12.5 µM | 9.38a micromolar | 3.13 µM | 3.13 µM | HC50 ([12]; Table 1A): 10.4 µM; RBC HC50 ([12]; Table 4, concentration required to lyse 50% of red blood cells): 10.4 µM; VRE MIC ([3]; Table 2A): 1.56 µM; MIC ([5]; Table 1B): 12.5 µM; MRSA-2 MIC ([5]; Table 2A): 3.13 µM; MIC ([5]; Table 3): 3.13 µM; MIC ([8]; Table 1B): 12.5 µM; MIC ([8]; Table 3): 12.5 µM; MIC (MRSA BAA-44; Table 1B): 12.5 µM; MIC (MRSA BAA-44; Table 3): 12.5 µM; MIC ([9]; Table 1B): 12.5 µM; MIC ([9]; Table 3): 12.5 µM; MRSA BAA-1707 MIC (MRSA BAA-1707; Table 2A): 9.38^a μM; MRSA-2 MBC (MRSA-2 biofilms): 250 µM; MRSA-2 MBEC (MRSA-2 biofilms): 188 µM; MIC ([10]; Table 2A, read-out: MRSE 35984 MIC): 3.13 µM; MIC ([11]; Table 1B): 6.25 µM; MIC ([11]; Table 3): 6.25 µM
